According to patent US20040121941A1, “Novel inhibitors of prenylated pyrophosphate consuming enzymes” (priority 1999, published 2004):

Target: T1, protein:geranylgeranyl transferase-1 (PGGT-1) (Bos taurus, UniProt Q5EAD5)
T1 construct: A crude PGGT-1 preparation was isolated from bovine brain; from tissue; host or cells: bovine brain
Assay: Protein:geranylgeranyl transferase-1 (PGGT-1) activity assay, [3H]-GGPP and sepharose-coupled peptide pepCsep
Assay type: biochemical
Settings: PGGT activity in % of control (without analogue), bovine brain enzyme, Table I
Description: PFT activity was determined using a C-terminal peptide of pre-p21^N-ras coupled to sepharose beads as substrate (pepAsep) as described previously (Cohen et al. Biochem. Pharmacol. 57 (1999), 365-373). The experimental conditions (25 μL reaction mixture) were as follows: 80 pmol/25 μL sepharose-coupled peptide, 0.7 μM of [^3H]-FPP (American Radiolabeled Chemicals Inc.; specific radioactivity 15 Ci/mmol) and 13 μL of rat brain enzyme preparation. Incubation was performed at 37° C. for 30 min. For the determination of IC50 values of the FPP analogues, the assay was performed three times in the presence of different concentrations of compound 5 (example 1) in duplicate. Determination of PGGT-1 activity was performed in a similar manner as described for PFT activity and has also been described previously (Cohen et al. Biochem. Pharmacol. 57 (1999), 365-373). […] The experimental conditions were as follows: 25 μL incubation mixture contained 2.5 μL (1 nmol) pepCsep, 1 μM [^3H]-GGPP (American Radiolabeled Chemicals Inc.; specific radioactivity 15 Ci/mmol), 3 μL of bovine brain enzyme preparation, 50 μM ZnCl2, 0.5 mM MgCl2, 1 mM dithiothreitol, 0.004% Triton X-100, 50 mM Tris-HCl (pH 7.4). […]
The radioactivity bound to the sepharose was strongly dependent on the presence of the cysteine residue in pepCsep and the reaction was linear up to 40 min and up to 5 μL of the enzyme preparation. […]

relative activity at 10 μM (compound at 10 μM): 36 ± 9%
relative activity at 100 μM (compound at 100 μM): 28 ± 5%
Substance: [Bis(benzyloxycarbonyl)lysyl]-[ε-aminocaproyl]-[β-(nitrophenylaminocarbonyl)-β-alanyl]-[phosphoserine] [compound 378]
